According to patent US8735622B2, “Histone demethylase inhibitors and methods for using the same” (The Regents of the University of Colorado, a body corporate, priority 2011, dated 2014):

What was measured:
[1] = tested on: H3K4me3 and H3K9me3 levels in KYSE150 cells; assay: Quantitative immunostaining assay of H3K4me3 and H3K9me3 in KYSE150 cells; format: cell-based, human; details: 2.5 μM, 48 h
Experimental: To quantify the cellular activity of methylstat, a quantitative image-based assay was used. […] The cellular effects of methylstat were also cell type-specific.
For quantified immunostaining experiments, KYSE150 or MCF7 cells were seeded in a 96-well plate at 10,000 cells per well and incubated at 37° C. for 24 hours. The medium was replaced and methylstat in DMSO was added at the concentration as indicated. After incubation for another 48 hours, immunostaining procedure was performed as described above using anti-H3K9me3 or anti-H3K4me3 primary antibody. Fluorescent images of cells were acquired by a Nikon Eclipse 90i fluorescence microscope and analyzed using the Cell Scoring analysis module of MetaMorph 7.0 software.

JHDM1A = biological target: T1, JHDM1A (Homo sapiens, UniProt Q9Y2K7); assay: Fluorescence polarization (FP) binding assay, JHDM1A; details: read-out: dissociation constant (Kd) to JHDM1A
T1 sequence (Q9Y2K7 1-1162): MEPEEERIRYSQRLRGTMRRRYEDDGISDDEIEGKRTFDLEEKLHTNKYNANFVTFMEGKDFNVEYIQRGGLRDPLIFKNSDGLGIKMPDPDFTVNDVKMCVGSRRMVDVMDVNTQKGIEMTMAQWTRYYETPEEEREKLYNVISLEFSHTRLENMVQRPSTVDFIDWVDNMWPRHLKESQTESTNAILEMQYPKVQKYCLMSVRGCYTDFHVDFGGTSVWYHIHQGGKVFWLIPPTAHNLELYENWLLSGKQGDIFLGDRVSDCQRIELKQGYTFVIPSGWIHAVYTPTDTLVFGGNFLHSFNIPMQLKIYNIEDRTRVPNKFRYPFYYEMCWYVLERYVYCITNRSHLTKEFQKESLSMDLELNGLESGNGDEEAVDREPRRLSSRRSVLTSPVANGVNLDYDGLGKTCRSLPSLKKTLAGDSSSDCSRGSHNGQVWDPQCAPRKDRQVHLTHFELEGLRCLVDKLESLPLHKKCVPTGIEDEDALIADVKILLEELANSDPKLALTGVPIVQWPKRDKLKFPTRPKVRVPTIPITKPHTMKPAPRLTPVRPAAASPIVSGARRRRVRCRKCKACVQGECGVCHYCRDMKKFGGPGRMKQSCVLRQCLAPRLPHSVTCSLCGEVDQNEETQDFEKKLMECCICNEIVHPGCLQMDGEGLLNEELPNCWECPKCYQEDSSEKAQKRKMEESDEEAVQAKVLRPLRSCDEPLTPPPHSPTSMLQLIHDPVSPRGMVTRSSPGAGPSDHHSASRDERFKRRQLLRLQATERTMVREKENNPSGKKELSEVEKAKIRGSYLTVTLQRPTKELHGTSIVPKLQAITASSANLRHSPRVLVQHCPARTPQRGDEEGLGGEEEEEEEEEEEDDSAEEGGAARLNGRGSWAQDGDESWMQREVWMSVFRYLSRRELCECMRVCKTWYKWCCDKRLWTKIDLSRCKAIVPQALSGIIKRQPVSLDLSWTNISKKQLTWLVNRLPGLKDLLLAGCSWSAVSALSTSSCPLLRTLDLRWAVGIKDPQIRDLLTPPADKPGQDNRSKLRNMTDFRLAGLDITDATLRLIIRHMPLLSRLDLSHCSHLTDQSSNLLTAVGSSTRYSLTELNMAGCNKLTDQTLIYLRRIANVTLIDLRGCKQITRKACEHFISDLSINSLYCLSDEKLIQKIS
Experimental: (§1) To measure fluorescence polarization, a Perkin Elmer EnVision 2102 Multilabel plate reader equipped with FP-FITC optic module was used. Corning half-area, black, flat-bottom, polystyrene, 96-well plates (cat. #: 3993) were used for all FP studies. Auto-adjustment of focal height and gain was performed in the well containing 80 μL of 1 nM fluorophore 20, the recommended concentration of fluorescein for this plate reader.
(§2) The dissociation constant (Kd) for fluorophore 20 to GST-JMJD2A(1-420) was measured (See FIG. 8) by titrating 20 (1 nM) with purified JMJD2A using protocols reported by Rossi et al. in Nat. Protoc., 2011, 6(3), 365-87. Fluorescence intensity values in parallel (i.e., I11) and perpendicular (i.e., I⊥) planes for each well were measured after 2 h of incubation at room temperature. For each experimental measurement, the protein background was subtracted, and the polarization (P) was calculated using these corrected values of I11 and I⊥ from the equation: P=(I11−G·I⊥)/(I11+G·I⊥), where the G factor is derived from the instrument auto-adjustment step. […] The Kd for 20 and JHDM1A was determined as 30±5 nM in a similar fashion.

GST-JMJD2A(1-420) = biological target: T2, GST-JMJD2A(1-420) (Homo sapiens, UniProt O75164); assay: Fluorescence polarization (FP) binding assay, JMJD2A; details: 1 nM fluorophore, 2 h at room temperature, read-out: dissociation constant (Kd) to GST-JMJD2A(1-420)
T2 construct: Recombinant protein preparation of GASC1(1-420), JMJD2A (1-420) and LSD1 (full-length); made in house; host or cells: Escherichia coli BL-21
T2 sequence (O75164 1-420): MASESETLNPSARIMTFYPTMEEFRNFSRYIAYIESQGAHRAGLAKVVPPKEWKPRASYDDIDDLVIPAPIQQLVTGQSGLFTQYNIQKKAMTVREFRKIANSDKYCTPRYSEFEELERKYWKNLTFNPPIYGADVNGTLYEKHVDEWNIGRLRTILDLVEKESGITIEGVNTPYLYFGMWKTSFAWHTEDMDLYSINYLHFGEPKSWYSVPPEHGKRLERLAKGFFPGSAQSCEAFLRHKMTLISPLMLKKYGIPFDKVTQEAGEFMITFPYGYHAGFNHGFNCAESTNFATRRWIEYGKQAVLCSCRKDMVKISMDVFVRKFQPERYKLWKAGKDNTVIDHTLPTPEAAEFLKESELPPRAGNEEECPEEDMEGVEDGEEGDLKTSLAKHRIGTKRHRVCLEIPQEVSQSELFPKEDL
Experimental: as §1, §2

[2] = tested on: prolyl hydroxylases (PHDs); assay: Cellular HIF-1α level (prolyl hydroxylase specificity) in MCF7 cells; format: cell-based, human; details: 24 hours, methylstat up to 15 μM, DFO 150 μM, DMOG 1 and 2 mM
Text: To assess the specificity of methylstat in vivo, another iron(II)- and α-ketoglutarate-dependent dioxygenases, prolyl hydroxylases (PHDs), was examined. PHDs have been reported to regulate normoxic inactivation of hypoxia-inducible factors (HIFs) by hydroxylating specific prolyl residues of HIFs. […] DMOG and DFO have been used to mimic hypoxia conditions by inhibiting PHDs in vivo. […] Similar results were also observed in HeLa cells (see FIG. 7).
Total lysates of cells were generated from the cells lysed in CelLytic M Cell Lysis (Sigma) with protease inhibitor cocktail (Sigma), mixed with 2×LSB buffer (100 mM Tris-HCl pH 6.8, 200 mM DTT, 4% SDS, 20% glycerol and 0.2% bromophenol blue) and boiled for 5 min before SDS-PAGE. BCA assay (Thermo) was applied for protein qualification.

| Compound | cellular activity in H3K4me3- and H3K9me3-immunostaining assays relative to methylstat [1] | cellular HIF-1α levels / prolyl hydroxylase inhibition [2] | other results |
| --- | --- | --- | --- |
| COC(=O)/C=C/C(=O)N(O)CCCC[N+](C)(C)Cc1ccc(COC(=O)Nc2cccc3ccccc23)cc1.[I-] [Compound 23f] | reduced its activity | – | – |
| NCc1ccc(CN(CCCCN(O)C(=O)/C=C/C(=O)O)C(=S)Nc2ccc(C3=C4C=CC(=O)C=C4Cc4cc(O)ccc43)c(C(=O)O)c2)cc1 [Compound 20] | – | – | Kd (JHDM1A): 30 ± 5 nM; Kd (GST-JMJD2A(1-420)): 175 ± 42 nM |
| COC(=O)C(=O)N(O)CCCCNCc1ccc(COC(=O)Nc2cccc3ccccc23)cc1 [Compound 23a] | significantly decreased cellular activity | – | – |
| COC(=O)CNC(=O)C(=O)OC [DMOG, dimethyl oxalylglycine, reference compound] | – | significantly increased cellular levels of HIF-1α | – |
| deferoxamine mesylate salt [DFO, reference compound] | – | significantly increased cellular levels of HIF-1α | – |
